# Experimental data taken from publication PMC4725312 (Journal of biomolecular screening, 2010).
# Target: TRPM7 (Mus musculus, UniProt Q923J1)
# Assay type: cell-based
# Sequence of TRPM7 (Q923J1 whole entry): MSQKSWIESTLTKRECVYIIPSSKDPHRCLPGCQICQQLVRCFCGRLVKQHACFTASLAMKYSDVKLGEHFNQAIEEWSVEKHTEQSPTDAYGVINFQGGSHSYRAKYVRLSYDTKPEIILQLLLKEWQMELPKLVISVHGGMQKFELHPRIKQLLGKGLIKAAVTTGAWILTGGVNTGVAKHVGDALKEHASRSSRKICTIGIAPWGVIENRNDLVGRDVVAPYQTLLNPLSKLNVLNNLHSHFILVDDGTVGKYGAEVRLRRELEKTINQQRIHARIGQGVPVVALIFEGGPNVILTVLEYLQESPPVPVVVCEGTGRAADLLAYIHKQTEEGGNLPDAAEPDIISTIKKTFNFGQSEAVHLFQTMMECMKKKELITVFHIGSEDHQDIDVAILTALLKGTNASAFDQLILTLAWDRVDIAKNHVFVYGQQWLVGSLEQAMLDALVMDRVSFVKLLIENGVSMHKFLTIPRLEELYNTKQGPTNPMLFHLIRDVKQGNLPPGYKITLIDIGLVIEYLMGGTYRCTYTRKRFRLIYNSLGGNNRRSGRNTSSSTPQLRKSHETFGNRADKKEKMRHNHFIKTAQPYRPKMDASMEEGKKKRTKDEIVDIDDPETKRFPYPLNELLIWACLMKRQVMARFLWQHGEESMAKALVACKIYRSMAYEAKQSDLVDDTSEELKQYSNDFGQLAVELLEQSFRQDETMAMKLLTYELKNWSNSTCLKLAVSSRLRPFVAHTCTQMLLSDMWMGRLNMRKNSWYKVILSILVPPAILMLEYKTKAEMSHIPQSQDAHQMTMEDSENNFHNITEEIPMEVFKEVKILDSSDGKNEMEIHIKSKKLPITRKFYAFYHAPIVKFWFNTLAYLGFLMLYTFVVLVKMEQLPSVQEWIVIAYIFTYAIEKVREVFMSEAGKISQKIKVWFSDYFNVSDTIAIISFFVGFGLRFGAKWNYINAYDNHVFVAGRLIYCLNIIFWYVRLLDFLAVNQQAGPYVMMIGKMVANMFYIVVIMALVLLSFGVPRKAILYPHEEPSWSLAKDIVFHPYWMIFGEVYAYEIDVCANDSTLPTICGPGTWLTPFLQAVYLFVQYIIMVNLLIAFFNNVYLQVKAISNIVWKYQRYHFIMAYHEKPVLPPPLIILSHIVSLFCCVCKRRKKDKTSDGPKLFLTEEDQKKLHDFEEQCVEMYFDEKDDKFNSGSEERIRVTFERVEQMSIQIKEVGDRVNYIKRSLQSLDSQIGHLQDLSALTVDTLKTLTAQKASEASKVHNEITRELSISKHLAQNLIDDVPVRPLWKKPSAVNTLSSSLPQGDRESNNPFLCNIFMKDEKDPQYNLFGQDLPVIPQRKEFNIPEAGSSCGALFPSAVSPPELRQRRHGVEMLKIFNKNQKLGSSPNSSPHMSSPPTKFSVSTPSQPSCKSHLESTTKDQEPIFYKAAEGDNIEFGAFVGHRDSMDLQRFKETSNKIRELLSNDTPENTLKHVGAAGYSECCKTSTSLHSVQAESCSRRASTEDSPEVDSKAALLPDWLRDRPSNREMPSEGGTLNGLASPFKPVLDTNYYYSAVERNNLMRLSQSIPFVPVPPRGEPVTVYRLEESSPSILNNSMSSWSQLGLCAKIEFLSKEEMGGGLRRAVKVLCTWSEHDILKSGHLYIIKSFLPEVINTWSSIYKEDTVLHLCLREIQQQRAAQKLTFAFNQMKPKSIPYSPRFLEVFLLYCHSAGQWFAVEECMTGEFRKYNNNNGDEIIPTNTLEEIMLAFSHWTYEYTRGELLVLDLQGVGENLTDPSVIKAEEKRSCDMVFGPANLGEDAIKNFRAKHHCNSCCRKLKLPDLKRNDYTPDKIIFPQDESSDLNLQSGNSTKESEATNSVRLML
structure (smiles),measurement,value
NCCOB(c1ccccc1)c1ccccc1 [2-APB],IC50,30 µM
